Each structure is given as a SMILES string.

This is an account of results in patent US9113629B2, “4-amino-6-(4-substituted-phenyl)-picolinates and 6-amino-2-(4-substituted-phenyl)-pyrimidine-4-carboxylates and their use as herbicides” (DOW AGROSCIENCES LLC, priority 2013, dated 2015).

Experiment in all cases: Post-emergent Test III, herbicidal activity in wheat and barley
Type in all cases: in vivo

In assay [1] the test system is PHAMI: lesser canary grass (Phalaris minor). The following applies: for pest or weed control at 35 g/ha / pest or weed control at 70 g/ha / pest or weed control at 140 g/ha: Phalaris minor, post-emergence, 504 h, read-out: Visual Growth Reduction (%) 21 Days After Application PHAMI; for pest or weed control at 35 g/ha: 35 g ai/ha; for pest or weed control at 70 g/ha: 70 g ai/ha; for pest or weed control at 140 g/ha: 140 g ai/ha; for GR50 PHAMI / GR80 PHAMI: probit analysis, 21 days after application; for GR50 PHAMI: dose for growth reduction of 50 percent; for GR80 PHAMI: dose for growth reduction of 80 percent. In a few lines:
(§1)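 GR20, GR50, GR80 and GR90 come from probit analysis of visual injury scores (0 = none, 100 = complete kill) taken 21 d after treatment. Foliar application was by track sprayer delivering 187 L/ha at five rates, from high down to 1/16×, onto greenhouse plants at the 2–3 leaf stage, with solvent-blank controls.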

The test system of assay [2] is STEME: common chickweed (Stellaria media). The note with it: for pest or weed control at 35 g/ha / pest or weed control at 70 g/ha / pest or weed control at 140 g/ha: Stellaria media, post-emergence, 504 h, read-out: Visual Growth Reduction (%) 21 Days After Application STEME; for pest or weed control at 35 g/ha: 35 g ai/ha; for pest or weed control at 70 g/ha: 70 g ai/ha; for pest or weed control at 140 g/ha: 140 g ai/ha; for GR50 STEME / GR80 STEME: probit analysis, 21 days after application; for GR50 STEME: dose for growth reduction of 50 percent; for GR80 STEME: dose for growth reduction of 80 percent. The essentials: as §1

The test system of assay [3] is GALAP: cleavers (Galium aparine). The note with it: Table 8, 21 d; for pest or weed control at 35 g/ha / pest or weed control at 70 g/ha: Galium aparine, post-emergence, 504 h, post-emergent, read-out: Visual Growth Reduction (%) 21 Days After Application GALAP; for pest or weed control at 35 g/ha: 35 g ai/ha; for pest or weed control at 70 g/ha: 70 g ai/ha; for GR50 GALAP: dose for 50 percent growth reduction; for GR50 GALAP / GR80 GALAP: probit analysis; for GR80 GALAP: dose for 80 percent growth reduction. In a few lines:
as §1

Take `Nc1cc(-c2ccc(Br)c(F)c2F)nc(C(=O)O)c1Cl` [Compound 91]: in assay [1], the pest or weed control at 35 g/ha fell in the range of 30 to 44%, the pest or weed control at 70 g/ha lay within 30 to 44%, the pest or weed control at 140 g/ha fell in the range of 30 to 44% and the “GR50 PHAMI” value is given as more than 140 g ai/ha. Moreover, the “GR80 PHAMI” value in assay [1] is given as more than 140 g ai/ha. In assay [2], the pest or weed control at 35 g/ha lay in the range of 0 to 29%, the pest or weed control at 70 g/ha lay within 30 to 44%, the pest or weed control at 140 g/ha lay within 45 to 59% and the “GR50 STEME” value is more than 140 g ai/ha. Moreover, the “GR80 STEME” value in assay [2] is listed as more than 140 g ai/ha.

In the case of `Nc1cc(-c2ccc(Br)c(F)c2)nc(C(=O)O)c1Cl` [Compound 110, 4-Amino-6-(4-bromo-3-fluorophenyl)-3-chloropicolinic acid], in assay [3], the pest or weed control at 35 g/ha lay within 95 to 100%, the pest or weed control at 70 g/ha is 95 to 100%, the “GR50 GALAP” value worked out at 1 g ai/ha and the “GR80 GALAP” value is 1 g ai/ha.

For the molecule `COc1c(N)nc(-c2ccc(Br)c(F)c2)nc1C(=O)O` [Compound 113, 6-Amino-2-(4-bromo-3-fluorophenyl)-5-methoxypyrimidine-4-carboxylic acid], in assay [3], the pest or weed control at 35 g/ha is 95 to 100%, the pest or weed control at 70 g/ha was in the range of 95 to 100%, the “GR50 GALAP” value was 5 g ai/ha and the “GR80 GALAP” value turned out to be 12 g ai/ha.

With `Nc1c(F)c(-c2ccc(Cl)c(F)c2)nc(C(=O)O)c1Cl` [Compound 217], in assay [1], the pest or weed control at 35 g/ha fell in the range of 85 to 94%, the pest or weed control at 70 g/ha was 85 to 94%, the pest or weed control at 140 g/ha was 85 to 94% and the “GR50 PHAMI” value was 11 g ai/ha. In addition, the “GR80 PHAMI” value in assay [1] came out at 30 g ai/ha. Further, in assay [2], the pest or weed control at 35 g/ha lay in the range of 60 to 74%, the pest or weed control at 70 g/ha is 75 to 84%, the pest or weed control at 140 g/ha was 75 to 84% and the “GR50 STEME” value worked out at 28 g ai/ha. The “GR80 STEME” value in assay [2] was determined as 88 g ai/ha.
